Among the data in ChEMBL document CHEMBL1139933, “Synthesis of andrographolide derivatives: a new family of alpha-glucosidase inhibitors” (Bioorg Med Chem, 2007) are Activity, inhibition and IC50 values, retold here.

SMILES strings stand for the structures. The source made the active and inactive calls. The calls are words filed in the database; no cut-off is given here.

Assay [1] deals with T1, Maltase-glucoamylase (Homo sapiens, UniProt O43451). In words: Inhibition of alpha-glucosidase at 100 uM.
Target sequence in this assay (O43451 whole entry, looked up): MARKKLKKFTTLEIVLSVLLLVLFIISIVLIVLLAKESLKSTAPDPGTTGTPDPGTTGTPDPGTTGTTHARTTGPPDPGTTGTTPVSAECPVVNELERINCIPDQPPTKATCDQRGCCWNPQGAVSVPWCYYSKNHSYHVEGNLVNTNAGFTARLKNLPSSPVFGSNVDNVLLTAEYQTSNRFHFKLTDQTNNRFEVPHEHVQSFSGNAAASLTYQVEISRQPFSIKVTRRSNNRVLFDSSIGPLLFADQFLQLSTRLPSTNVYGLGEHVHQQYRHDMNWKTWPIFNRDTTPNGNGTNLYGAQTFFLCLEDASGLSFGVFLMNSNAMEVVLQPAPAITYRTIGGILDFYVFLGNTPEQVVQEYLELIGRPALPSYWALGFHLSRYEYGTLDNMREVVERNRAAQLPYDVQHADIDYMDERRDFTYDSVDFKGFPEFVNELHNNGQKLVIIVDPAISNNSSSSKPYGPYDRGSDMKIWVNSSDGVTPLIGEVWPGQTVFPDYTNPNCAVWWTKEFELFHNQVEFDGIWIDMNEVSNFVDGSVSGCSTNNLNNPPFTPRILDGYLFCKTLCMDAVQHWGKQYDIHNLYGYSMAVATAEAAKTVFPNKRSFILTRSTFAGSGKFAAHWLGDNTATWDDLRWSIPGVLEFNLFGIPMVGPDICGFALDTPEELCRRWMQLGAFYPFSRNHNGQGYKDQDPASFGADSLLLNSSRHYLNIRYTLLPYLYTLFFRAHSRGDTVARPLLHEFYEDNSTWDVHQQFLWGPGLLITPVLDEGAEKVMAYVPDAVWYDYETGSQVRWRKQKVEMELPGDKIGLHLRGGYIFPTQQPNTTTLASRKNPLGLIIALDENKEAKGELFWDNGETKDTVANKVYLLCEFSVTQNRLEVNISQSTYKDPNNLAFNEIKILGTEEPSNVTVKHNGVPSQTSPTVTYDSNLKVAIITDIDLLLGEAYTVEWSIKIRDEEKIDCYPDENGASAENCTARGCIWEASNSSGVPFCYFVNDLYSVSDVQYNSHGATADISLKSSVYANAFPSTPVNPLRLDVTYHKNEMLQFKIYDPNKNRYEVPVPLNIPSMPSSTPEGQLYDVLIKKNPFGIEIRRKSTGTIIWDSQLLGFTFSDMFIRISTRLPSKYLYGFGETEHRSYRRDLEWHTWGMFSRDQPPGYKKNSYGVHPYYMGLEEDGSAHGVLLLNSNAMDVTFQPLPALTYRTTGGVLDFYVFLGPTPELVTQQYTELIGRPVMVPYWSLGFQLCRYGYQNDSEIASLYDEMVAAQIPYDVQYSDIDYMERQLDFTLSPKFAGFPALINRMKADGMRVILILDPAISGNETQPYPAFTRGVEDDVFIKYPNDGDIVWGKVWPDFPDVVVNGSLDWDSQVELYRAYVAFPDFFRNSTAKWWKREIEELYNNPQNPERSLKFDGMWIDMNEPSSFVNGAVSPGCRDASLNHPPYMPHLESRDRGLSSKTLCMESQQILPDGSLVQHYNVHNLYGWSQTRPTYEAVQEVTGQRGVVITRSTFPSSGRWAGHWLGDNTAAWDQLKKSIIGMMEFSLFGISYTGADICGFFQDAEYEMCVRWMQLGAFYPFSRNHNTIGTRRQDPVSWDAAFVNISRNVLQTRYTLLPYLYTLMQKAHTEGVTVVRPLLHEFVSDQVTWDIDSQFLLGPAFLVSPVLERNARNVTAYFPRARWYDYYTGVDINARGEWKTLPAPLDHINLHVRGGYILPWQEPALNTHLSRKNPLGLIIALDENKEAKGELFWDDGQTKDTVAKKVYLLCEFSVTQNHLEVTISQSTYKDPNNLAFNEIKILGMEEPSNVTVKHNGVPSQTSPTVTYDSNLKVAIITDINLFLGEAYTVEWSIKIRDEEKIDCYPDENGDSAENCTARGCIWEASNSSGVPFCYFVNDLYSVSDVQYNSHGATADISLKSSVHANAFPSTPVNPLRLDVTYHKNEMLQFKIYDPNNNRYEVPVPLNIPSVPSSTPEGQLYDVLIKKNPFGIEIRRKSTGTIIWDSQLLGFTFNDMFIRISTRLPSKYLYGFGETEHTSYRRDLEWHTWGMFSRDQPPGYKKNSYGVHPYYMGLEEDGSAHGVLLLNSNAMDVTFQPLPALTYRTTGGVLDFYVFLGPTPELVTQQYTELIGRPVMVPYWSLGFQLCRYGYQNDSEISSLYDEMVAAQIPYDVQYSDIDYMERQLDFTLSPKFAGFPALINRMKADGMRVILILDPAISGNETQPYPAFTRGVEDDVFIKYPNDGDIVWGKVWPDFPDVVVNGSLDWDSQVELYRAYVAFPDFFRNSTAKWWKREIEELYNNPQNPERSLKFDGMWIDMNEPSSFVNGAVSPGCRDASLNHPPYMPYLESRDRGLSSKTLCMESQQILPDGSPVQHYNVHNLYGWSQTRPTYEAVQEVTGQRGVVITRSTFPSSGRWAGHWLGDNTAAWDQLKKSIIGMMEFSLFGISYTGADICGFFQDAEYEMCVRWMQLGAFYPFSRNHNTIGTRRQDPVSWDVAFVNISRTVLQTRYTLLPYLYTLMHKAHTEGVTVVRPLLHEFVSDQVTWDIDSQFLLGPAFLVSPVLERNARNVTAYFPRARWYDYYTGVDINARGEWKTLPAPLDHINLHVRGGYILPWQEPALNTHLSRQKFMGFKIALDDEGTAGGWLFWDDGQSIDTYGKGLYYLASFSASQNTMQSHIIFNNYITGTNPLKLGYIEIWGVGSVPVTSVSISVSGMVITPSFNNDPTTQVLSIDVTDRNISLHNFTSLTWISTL
In assay [2] the target is T1, Maltase-glucoamylase. Description: Inhibition of alpha-glucosidase.
Target sequence in this assay (O43451 whole entry): as the sequence (O43451 whole entry, looked up) above
The target in assay [3] is T1, Maltase-glucoamylase. Description: Inhibition of alpha-glucosidase at 1 mM.
Target sequence in this assay (O43451 whole entry, looked up): as above

Regarding `C=C1CC[C@@H]2[C@](C)(CO)[C@H](O)CC[C@@]2(C)[C@@H]1/C=C/C1=CC(=C/c2ccc(Cl)cc2)/OC1=O`, the result in assay [1] was inactive.

For the molecule `C=C1CC[C@@H]2[C@](C)(COC(=O)c3cccnc3)[C@H](OC(=O)c3cccnc3)CC[C@@]2(C)[C@@H]1/C=C/C1=CC(=C\c2ccc(N(C)C)cc2)/OC1=O`, in assay [1], the inhibition (in general, how much of the control response was suppressed) was found to be 74.8%. For the molecule `C=C1CC[C@@H]2[C@](C)(CO)[C@H](O)CC[C@@]2(C)[C@@H]1CCC1CCOC1=O` (stereo partly specified), the outcome in assay [1] was inactive. Still for that read-out and setting: with `C=C1CC[C@@H]2[C@](C)(CO)[C@H](O)CC[C@@]2(C)[C@@H]1/C=C/C1=CC(=C\C(C)=C\CCC/C=C/C)/OC1=O` the entry was “inactive”; with `C=C1CC[C@@H]2[C@](C)(CO)[C@H](O)CC[C@@]2(C)[C@@H]1C/C=C1/C(=O)OC[C@H]1O`, “inactive”; with `C=C1CC[C@@H]2[C@](C)(CO)[C@H](O)CC[C@@]2(C)[C@@H]1/C=C/C1=CC(=C/c2ccc(F)cc2)/OC1=O`, “inactive”.

As to `C=C1CC[C@@H]2[C@](C)(CO)[C@H](O)CC[C@@]2(C)[C@@H]1/C=C/C1=CC(=C/c2ccc3c(c2)OCO3)/OC1=O`, the inhibition in assay [1] is 59.3%. In assay [1], `C=C1CC[C@@H]2[C@]3(C)COCO[C@@H]3CC[C@@]2(C)[C@@H]1CC(O)C1=CCOC1=O` (stereo partly specified) yielded an inhibition of 6.9%. With `C=C1CC[C@@H]2[C@](C)(CO)[C@H](O)CC[C@@]2(C)[C@@H]1/C=C/C1=CC(=C/c2ccc(OC)cc2)/OC1=O`, in assay [2], the half-inhibitory concentration (IC50) (in general, the concentration that gives 50% inhibition) is 16 µM. `C=C1CC[C@@H]2[C@](C)(COC(=O)c3cccnc3)[C@H](OC(=O)c3cccnc3)CC[C@@]2(C)[C@@H]1/C=C/C1=CC(=C/c2ccco2)/OC1=O` yielded an inhibition in assay [1] of 95.9%. Turning to `C=C1CC[C@@H]2[C@](C)(COC(=O)c3cccnc3)[C@H](OC(=O)c3cccnc3)CC[C@@]2(C)[C@@H]1/C=C/C1=CC(=C\c2ccc(Cl)cc2)/OC1=O`, the inhibition in assay [1] stood at 100%.

On to `C[C@]1(CO)[C@H]2CC[C@@]3(CO3)[C@@H](C/C=C3/C(=O)OC[C@H]3O)[C@]2(C)CC[C@H]1O`, for which the outcome in assay [1] was inactive. As for `C[C@H]1O[C@H](O[C@H]2[C@H](O)[C@@H](O)[C@@H](O[C@H]3[C@H](O)[C@@H](O)C(O)O[C@@H]3CO)O[C@@H]2CO)[C@H](O)[C@@H](O)[C@@H]1N[C@H]1C=C(CO)[C@@H](O)[C@H](O)[C@H]1O` (stereo partly specified), the inhibition in assay [3] came to 56.5%. `C=C1CC[C@@H]2[C@](C)(COC(=O)c3cccnc3)[C@H](OC(=O)c3cccnc3)CC[C@@]2(C)[C@@H]1/C=C/C1=CC(=C\C(C)=C\CCC/C=C/C)/OC1=O` displayed an inhibition in assay [1] of 68.9%. Molecule `C=C1CC[C@@H]2[C@](C)(COC(=O)c3cccnc3)[C@H](OC(=O)c3cccnc3)CC[C@@]2(C)[C@@H]1/C=C/C1=CC(=C\c2cccc(Br)c2)/OC1=O` had an inhibition in assay [1] of 100%. Same read-out and setting: then `C=C1CC[C@@H]2[C@](C)(COC(=O)c3cccnc3)[C@H](OC(=O)c3cccnc3)CC[C@@]2(C)[C@@H]1/C=C/C1=CC(=C\c2ccccc2)/OC1=O`, with 100%. Same read-out and setting: then `C=C1CC[C@@H]2[C@](C)(CO)[C@H](O)CC[C@@]2(C)[C@@H]1/C=C/C1=CC(=C/c2ccc(N(C)C)cc2)/OC1=O`, with 60.6%; and `C=C1CC[C@@H]2[C@](C)(CO)[C@H](O)CC[C@@]2(C)[C@@H]1/C=C/C1=CC(=C/c2cc(OC)c(OC)cc2OC)/OC1=O`, with 57.8%. Turning to `C=C1CC[C@@H]2[C@](C)(CO)[C@H](O)CC[C@@]2(C)[C@@H]1/C=C/C1=CC(=C/c2ccco2)/OC1=O`, the inhibition in assay [1] was determined as 49.6%. The same measure, in the same setting: with `C=C1CC[C@@H]2[C@](C)(COC(=O)c3cccnc3)[C@H](OC(=O)c3cccnc3)CC[C@@]2(C)[C@@H]1/C=C/C1=CC(=C\c2ccc(OC)cc2)/OC1=O` the figure was 100%.

As for `C=C1CC[C@@H]2[C@](C)(CO)[C@H](O)CC[C@@]2(C)[C@@H]1/C=C/C1=CC(=C/c2ccccc2)/OC1=O`, the inhibition in assay [1] was 84.3%.
